Assay results: PubChem BioAssay (NCI)
Values joined by “and” are separate entries in the source; they are usually repeats but may differ in a detail not shown here. Equal entries are not always repeated.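 96-well plates; 48 h exposure; 5 concentrations. Endpoints by linear interpolation between flanking doses. Not reached: highest tested concentration assigned. The concentration for 50% growth inhibition is given as GI50. TGI marks complete inhibition of growth.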

Tested on: MDA-MB-468 breast
Assay: NCI-60 cell line screen, 48 h

COc1cc(/C=C/C(=O)c2cc(OC)c(OC)c(OC)c2)cc(OC)c1OC
GI50: 3.07 µM | TGI: 14.8 µM

C=C1C(=O)O[C@H]2[C@H]1CC/C(COC(=O)C(=O)c1cn(C)c3ccc(OC)cc13)=C\CC[C@@]1(C)O[C@@H]21
GI50: 1.73 µM | TGI: 2.92 µM

CN1c2ccccc2C(C)(C)C12CC(c1ccc(Cl)c(S(=O)(=O)N3CCCC3)c1)=NO2 (configuration not stated)
GI50: > 100 µM | TGI: > 100 µM

CC12CCC(O)CC1CCC1C2CCC2(C)C(C3=CC(=O)OC3)CCC12 (configuration not stated)
GI50: 5.29 µM | TGI: > 42.9 µM

COc1cc(C2c3cc4c(cc3OC(N3CCOCC3)C2C)OCO4)cc(OC)c1OC(C)=O (configuration not stated)
GI50: 20 µM | TGI: > 100 µM

COC1CCC(n2c([C@@H]3CCCC(=O)N3c3ccc(F)c(F)c3)nc3cc(-c4c(C)noc4C)ccc32)CC1 (some centres not stated)
GI50: 3.95 µM | TGI: 28.4 µM

COc1ccc(-c2nn(-c3cccc(NC(=O)Nc4cccc(C(F)(F)F)c4)c3)cc2-c2ccncc2)cc1Cl
GI50: 1.54 µM | TGI: 6.47 µM

CC(=O)OC1=C2C(CC3C4CC=C5CC(OC(C)=O)CCC5(C)C4CCC23C)C2C(=O)N(Cc3ccccc3)C(=O)C2C1 (configuration not stated)
GI50: 2.84 µM | TGI: 14.9 µM

CN(C)CCCC(=O)Nc1ccc(Cn2nnc3c2C(=O)c2nnn(Cc4ccc(NC(=O)CCCN(C)C)cc4)c2C3=O)cc1
GI50: 1.3 µM | TGI: 2.97 µM

Oc1ccc(-c2nc3ccc4[nH]ncc4c3c3c2CCCC3)c2cccnc12
GI50: 0.787 µM | TGI: 2.02 µM

Clc1ccc(-c2cn(-c3ccccc3)c(-c3ccccc3)n2)c(Cl)c1
GI50: > 50 µM | TGI: > 50 µM

CC(C)(C)n1cc(-c2ccnc(NCCNS(=O)(=O)c3cccc4ccccc34)c2)c(-c2cccc(F)c2)n1
GI50: 11 µM | TGI: 33.6 µM

CC(C)(C)c1ccc(C(=O)Nc2sc3c(c2C(N)=O)CC/C(=N\O)C3)cc1
GI50: 3.06 µM | TGI: 9.38 µM

CN1CCN(c2cc(Nc3cc(C4CC4)[nH]n3)nc(Nc3ccc(CC(=O)NCc4cccc(F)c4)cc3)n2)CC1
GI50: 2.6 µM | TGI: 16.7 µM

COc1ccc(-c2[nH]ncc2-c2cc(OC)c(OC)c(OC)c2)cc1
GI50: < 0.01 µM | TGI: 5.56 µM

CC(C)[C@@H](CS(=O)(=O)C(C)C)N1C(=O)[C@@](C)(CC(=O)O)C[C@H](c2cccc(Cl)c2)[C@H]1c1ccc(Cl)cc1
GI50: 11.6 µM | TGI: 45 µM

C#CC#CC#CC#CC#CC#CC#CC#CCC1OC[C@H](COC(=O)O[C@@H](C(=O)O[C@H]2C[C@@]3(O)[C@@H](OC(=O)c4ccccc4)[C@@H]4[C@]5(OC(C)=O)CO[C@@H]5C[C@H](O)[C@@]4(C)C(=O)[C@H](OC(C)=O)C(=C2C)C3(C)C)[C@@H](NC(=O)c2ccccc2)c2ccccc2)O1 (some centres not stated)
GI50: 0.139 µM | TGI: 0.922 µM

COc1ccc(Cn2cc(Cn3c(=O)c(-c4nc5ccccc5[nH]4)cc4ccccc43)nn2)c(OC)c1OC
GI50: 0.112 µM and 0.254 µM

c1ccc2c(c1)ccc1c3ccccc3ccc21
GI50: 8.59 µM | TGI: > 50 µM

Nc1nc(Nc2ccc3c(c2)CCC(N2CCCC2)CC3)nn1-c1cc2c(nn1)-c1ccccc1CCC2 (configuration not stated)
GI50: 1.4 µM | TGI: 2.9 µM

Nc1c(O)c(S(=O)(=O)O)c(O)c2c1C(=O)c1ccccc1C2=O
GI50: 2.1 µM | TGI: 5.98 µM

CCCCc1nc2cc(/C=C/C(=O)NO)ccc2n1CCN(CC)CC
GI50: 0.177 µM | TGI: 1.91 µM

NC(N)=Nc1ccc(Oc2ccc(Nc3ccc(Cl)c(C(F)(F)F)c3)cc2)cc1
GI50: 1.55 µM | TGI: 3.39 µM

O=C1C(=O)c2c(nc3ncccn23)-c2ccccc21
GI50: 0.205 µM | TGI: 0.555 µM
